Counter-ions that a name gives are not always drawn. Like-named read-outs stand apart in the source and are kept apart here.
How the values were obtained:
Type in all cases: cell-based
[1] = test system: Adult Bovine Aortic Endothelial (ABAE) cell line; experiment: Antiproliferative activity in Adult Bovine Aortic Endothelial (ABAE) cell line, PROTOCOL 3; conditions: for IC50: Bos taurus, 96 h, ABAE cells
Description: The antiproliferative activity of the compounds of Formula I in an Adult Bovine Aortic Endothelial (ABAE) cell line and in Human Tumor cells lines is evaluated in three similar assays that measure growth inhibition. The assays are identified as follows:
(§1) PROTOCOLS 1, 2, and 3 are described in greater detail hereinbelow. In general, according to PROTOCOLS 1 and 2, the target ABAE and/or Human Tumor cells are exposed to the compound of Formula I for 48 hours. PROTOCOL 3 exposes ABAE cells to the compounds for 4 days. A detailed description of the protocol is as follows:
Antiproliferative Activity in Adult Bovine Aortic Endothelial (ABAE) Cell Line
ABAE cells are grown in DMEM media (Mediatech Washington, D.C.) supplemented with 10% calf serum (Hyclone). ABAE cells are plated in 24-well dishes at 8,000 cells/well, followed by the addition of increasing concentrations of 7-[substituted amino]-9-[(substituted glycyl)amido]-6-demethyl-6-deoxytetra-cyclines. After four days, the cells are detached and counted. […] The growth inhibition (I) as % of control is calculated as follows: [formula] wherein: Nc is the number of cells in untreated wells;
Nt is the number of cells in treated wells;
No is the number of plated cells.
IC50 of growth inhibition is determined from the sets of I values plotted by Kaleidograph software (Abelbeck Software).
Table 2 presents the results depicting the antiproliferative activity of the compounds of Formula I against an adult bovine aortic endothelial cell line (ABAE), as evaluated by PROTOCOL 1 and PROTOCOL 3. The results are presented in terms of IC50 and are as follows.

A2780S = experiment: Antiproliferative activity in human tumor cell lines (A2780S); conditions: A2780S ovarian tumor cell line
Description: as §1
(§2) The antiproliferative activity of the compounds of Formula I of the present invention is evaluated in a panel comprised of human tumor cell lines and an adult bovine aortic endothelial cell line (ABAE). The human tumor cell lines are from
Cultures are renewed after 20 passages with cells from a fresh stock of batch-frozen early passage cells. Cell lines are routinely checked for mycoplasma contamination (Genprobe). In a laminar flow hood, cells (1-5×10^4) are plated into 96-well microtiter plates in a volume of 0.1 ml/well with a bulk microtiter dispenser (Denley). […] Compounds are added using a Tomtec dispenser which simultaneously dispenses from one 96-well plate, containing the drug dilutions, to the plates containing the cells. After two days of continuous drug exposure, 50% cold trichloroacetic acid (TCA) is added to 10% final concentration to fix the cells, and after 60 minutes at 4° C., the TCA is aspirated and the plates are washed 5 times with deionized water using a microtiter plate washer. […] A 0.4% solution of the dye, sulforhodamine B, in […] is added to the plates, and the plates are washed 5 times with 1% glacial acetic acid using the automatic plate washed. The bound stain is solubilized with 0.1 ml of 10 mM Tris base. The optical densities are read from an automatic spectrophotometric plate reader (Dynatech) directly to a main frame computer (VAX 8600).
(§3) Positive controls, that include standard chemotherapeutic drugs (i.e., adriamycin, cisplatin, etc.), are included in every experiment.
(§4) Background optical density measurements (complete media-cells, and complete media+drug-cells) are automatically subtracted from the appropriate control and test wells. Mean values and standard errors are determined from duplicate wells. A measure is also made of the optical density at time when the drugs are added. The number of cells after treatment (P), as % of control, is calculated for every concentration of drug, as follows: [formula] wherein: T is optical density measurement for treated cells after 48 hours;
(§5) C is optical density measurement for untreated cells after 48 hours;
(§6) Co is optical density measurement for cells at the time of drug addition.
(§7) IC50 of growth inhibition is calculated from the sets of P values using the RS-1 data package (BBN Software).
(§8) Antiproliferative Activity in Human Tumor Cell Lines
(§9) The antiproliferative activity of the compounds of Formula I is evaluated in the panel comprised of human tumor cell lines as listed in PROTOCOL 1. This assay is a slight modification of PROTOCOL 1. The modifications include:
(§10) 1) each concentration for each compound is tested in a single well;
(§11) 2) compounds are tested at 20, 4, 0.8, 0.16 microgram/ml and additionally in some experiments at 100 and 0.32 microgram/ml;
(§12) 3) samples are pipetted into a 96-well plate for each of the cell lines by a Beckman Biomek 1000 SL robot;
(§13) 4) after fixing with TCA each well is washed with 0.35 ml distilled water twice, not five times;
(§14) 5) after staining with sulforhodamine B each well is washed 3 times, not five times;
6) the growth inhibition (I) as % of control, is calculated using the RS-1 data package (BBN Software), for every concentration of drug, as follows: [formula] wherein: T is optical density measurement for treated cells after 48 hours;
7) IC50 of growth inhibition is determined graphically from dose response curves, as is known in the art.

CACO2 = experiment: Antiproliferative activity in human tumor cell lines (CACO2); conditions: Caco-2, CACO2 colon tumor cell line
Description: as §1, §2
All cell lines are maintained in log phase in RPMI 1640 media, supplemented with 5% fetal calf serum, penicillin/streptomycin and 2 mM L-glutamine. Cultures are renewed after 20 passages with cells from a fresh stock of batch-frozen early passage cells. Cell lines are routinely checked for mycoplasma contamination (Genprobe). In a laminar flow hood, cells (1-5×10^4) are plated into 96-well microtiter plates in a volume of 0.1 ml/well with a bulk microtiter dispenser (Denley). […] At this concentration, dimethylsulfoxide has no effect on cell growth. Compounds are added using a Tomtec dispenser which simultaneously dispenses from one 96-well plate, containing the drug dilutions, to the plates containing the cells. After two days of continuous drug exposure, 50% cold trichloroacetic acid (TCA) is added to 10% final concentration to fix the cells, and after 60 minutes at 4° C., the TCA is aspirated and the plates are washed 5 times with deionized water using a microtiter plate washer. The number of cells on the plate are quantitated using a protein dye-binding assay (Monks et al., 1991). A 0.4% solution of the dye, sulforhodamine B, in glacial acetic acid is added to the plates, and the plates are washed 5 times with 1% glacial acetic acid using the automatic plate washed. The bound stain is solubilized with 0.1 ml of 10 mM Tris base. The optical densities are read from an automatic spectrophotometric plate reader (Dynatech) directly to a main frame computer (VAX 8600).
as §3, §4, §5, §6, §7, §8, §9, §10, §11, §12, §13, §14
6) the growth inhibition (I) as % of control, is calculated using the RS-1 data package (BBN Software), for every concentration of drug, as follows: [formula] wherein: T is optical density measurement for treated cells after 48 hours; […]

SMILES | activity upon incubation with cells ([1]; 4 day assay (Protocol 3)) | IC50 ([1]; 4 day assay (Protocol 3), FIG. 1 text, read-out: inhibits 50% of cell growth at) | IC50 ([1]; 4 days exposure, read-out: IC50 PROTOCOL 3) | IC50 (A2780S) | IC50 (CACO2)
CN(C)CC(=O)Nc1cc(N(C)C)c2c(c1O)C(=O)C1=C(O)[C@]3(O)C(=O)C(C(N)=O)=C(O)[C@@H](N(C)C)C3CC1C2 (stereo partly drawn) [Example 2, [4S-(4a,12aa-1-4,7-Bis(dimethylamino)-9-[[(dimethylamino)acetyl]amino]]-1,4,,4a,5,5a,6,11,12a-octahvdro-3,10,12,12a-tetrahydroxy-1,11-dioxo-2-napththacenecarboxamidedihydrochloride] | retains its activity | ~3 µg/mL | 3 µg/mL | 6.5 µg/mL | 5.1 µg/mL
CCCCCCCNCC(=O)Nc1cc(N(C)C)c2c(c1O)C(=O)C1=C(O)[C@]3(O)C(=O)C(C(N)=O)=C(O)[C@@H](N(C)C)C3CC1C2 (stereo partly drawn) [Example 5, [4S-(4α,12aα)]-4,7-Bis(dimethylamino)-9-[[(heptylamino)acetyl]amino]-1,4,4a,5,5a,6,11,12a-octahydro-3,10,12,12a-tetrahydroxy-1,11-dioxo-2-naphthacenecarboxamide dihydrochloride] |  |  |  | 2.5 µg/mL | 3.7 µg/mL
CCCCCCNCC(=O)Nc1cc(N(C)C)c2c(c1O)C(=O)C1=C(O)[C@]3(O)C(=O)C(C(N)=O)=C(O)[C@@H](N(C)C)C3CC1C2 (stereo partly drawn) [Example 4, [4S-(4α,12aα)]-4,7-Bis(dimethylamino)-9-[(hexylamino)acetyl]amino]-1,4,4a,5,5a,6,11,12a-octahydro-3,10,12,12a-tetrahydroxy-1,11-dioxo-2-naphthacenecarboxamide dihydrochloride] |  |  |  | 2.3 µg/mL | 1.9 µg/mL
